Entries after “also recorded” stand apart in the source; their conditions may differ. Counter-ions that a name gives are not always drawn.
Columns and labels:
[1] = tested on: zebrafish; assay: Social preference test in zebrafish, MK-801 model; format: in vivo, Danio rerio; settings: for overall effect on all parameters of the social preference test: drug pretreatment, then water or MK-801 5 μM
Experimental: (§1) Here, the ability of alstonine salts to reverse schizophrenia-like symptoms produced by MK-801 in zebrafish was evaluated. The atypical antipsychotic olanzapine was used as a comparison.
(§2) Experiments were performed using male and female (50:50 ratio) short-fin wild-type zebrafish (4-month-old, 300-500 mg). Adult animals were obtained from a local commercial supplier (Delphis, R S, Brazil). The animals were maintained at Instituto de Ciências Básicas da Saúde in a light/dark cycle of 14/10 h with lights on at 7:00 a.m for at least two weeks before tests. Fish were kept in 40-L (30×46×33 cm) unenriched glass tanks with non-chlorinated water at a maximum density of five animals per liter. Tank water satisfied the controlled conditions required for zebrafish (26±2° C.; pH 7.0±0.3; dissolved oxygen at 7.0±0.4 mg/L; total ammonia at <0.01 mg/L; total hardness at 5.8 mg/L; alkalinity at 22 mg/L CaCO3; conductivity of 1,500-1,600 μS/cm) and was constantly filtered by mechanical, biological, and chemical filtration systems. Food was provided twice a day as commercial flake food (Poytara®, SP, Brazil) plus brine shrimp (Artemia salina). The sex of the animals was confirmed after euthanasia by dissecting and analyzing the gonads. For all experiments, no sex effects were observed, so data were pooled together. Animals were euthanized by hypothermic shock according to the AVMA Guidelines for the Euthanasia of Animals (Leary and Johnson, 2020).
(§3) MK-801 (dizocilpine) and sulpiride were purchased from Sigma-Aldrich (St. Louis, MO, USA); olanzapine was purchased from Selleck Chemicals. Alstonine hydrochloride, alstonine benzoate, and alstonine benzensulfonate were prepared as described herein. MK-801, olanzapine, and alstonine hydrochloride were dissolved in distilled water, with sonication in an ultrasonic bath for the latter. Sulpiride, alstonine benzoate, and alstonine benzensulfonate were dissolved in 100% DMSO; stock solutions were diluted to achieve a final DMSO concentration of 1% for the highest concentration. MK-801 solutions were freshly prepared, while alstonine stock solutions were kept refrigerated for up to five days. Exposure solutions were renovated halfway through the experiment, with a maximum of four fish exposed to the same solution.
(§4) Different sets of animals were used for each experiment, totaling 600 zebrafish in the study (plus 200 zebrafish serving as stimulus animals). Animals were individually exposed to water or alstonine solutions at 2.5, 5 or 10 mg/L in 500-mL beakers containing 200-mL solution for 20 min (n=15). These concentrations were extrapolated from mice studies. Fish were then transferred to another beaker containing either water or MK-801 at 5 μM and remained there for another 20 minutes.
(§5) The animals were allocated to the experimental groups following block randomization procedures to counterbalance for home tank, sex, and day of testing. The order for outcome assessment was also randomized and care was taken to counterbalance the test apparatuses across the experimental groups. Outcome assessors were blind to the experimental groups, as well as the experimenters responsible for taking the animal and placing it in the test apparatus.
The protocol for the social preference test in zebrafish followed the method described by Benvenutti et al. (2021). After exposure, animals were placed for 7 min in a tank (30×10×15 cm) flanked by two identical tanks (15×10×13 cm) either empty (neutral stimulus) or containing 10 unknown zebrafish (social stimulus). All three tanks were filled with water in standard conditions at a level of 10 cm. The position of the social stimulus (right or left) was counterbalanced throughout the tests. The water in the test tanks was changed between every animal. To assess social behavior, the test apparatus was virtually divided into three vertical zones (interaction, middle, and neutral). Animals were habituated to the apparatus for 2 min and then analyzed for the last 5 min. […]

[2] = tested on: zebrafish; assay: Open tank test in zebrafish, MK-801 model; format: in vivo, Danio rerio; settings: for overall effect on the analyzed parameters of the open tank test: drug pretreatment
Experimental: as §1, §2, §3, §4, §5
The protocol for the open tank test followed the method described by Benvenutti et al. (2021). Immediately after the social preference test, animals were placed in the center of the open tank arena and recorded for 10 min. The apparatus consisted of a white circular arena (24 cm in diameter and 8 cm in height, 2 cm water level). The apparatus format and the acquisition of videos from the top view allows the evaluation of locomotor parameters related to stereotypic behavior (circular movements and absolute turn angle). The water was changed between every animal. The following outcomes were automatically scored using ANY-Maze software (Stoelting Co., Wood Dale, IL, USA): total distance traveled, absolute turn angle, number of clockwise rotations, and immobility time. […]

[3] = target: T1, D1 (Homo sapiens, UniProt P21728); settings: cortex membranes; preliminary binding studies; cited from earlier work
T1 construct: host or cells: cortex membranes (tissue)
T1 sequence (P21728 whole entry): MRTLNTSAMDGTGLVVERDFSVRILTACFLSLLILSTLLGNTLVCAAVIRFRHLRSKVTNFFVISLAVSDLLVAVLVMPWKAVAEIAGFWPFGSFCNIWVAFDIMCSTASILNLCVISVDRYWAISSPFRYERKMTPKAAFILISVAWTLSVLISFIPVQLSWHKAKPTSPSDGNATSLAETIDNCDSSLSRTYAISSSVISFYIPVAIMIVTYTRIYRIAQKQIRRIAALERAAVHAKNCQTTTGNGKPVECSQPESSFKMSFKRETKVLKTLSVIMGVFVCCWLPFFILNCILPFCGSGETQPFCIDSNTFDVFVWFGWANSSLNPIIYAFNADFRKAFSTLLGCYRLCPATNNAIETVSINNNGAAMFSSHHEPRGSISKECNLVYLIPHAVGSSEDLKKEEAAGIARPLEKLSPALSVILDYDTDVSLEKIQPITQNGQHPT

[4] = tested on: mice; settings: 0.5-1.0 mg/kg ip; cited from earlier work
[5] = tested on: dopamine (DA) uptake; settings: mouse striatal synaptosomes; cited from earlier work
[6] = tested on: D2, and 5-HT2A receptors; settings: cortex membranes; preliminary binding studies; cited from earlier work
[7] = MK-801 5 μM vs control, experiment with olanzapine
[8] = MK-801 5 μM vs controls, experiment with sulpiride

COC(=O)C1=CO[C@@H](C)[C@@H]2Cn3ccc4c5ccccc5nc-4c3C[C@H]12 [Alstonine hydrochloride]
overall effect on all parameters of the social preference test [1]: potentiated the effects of MK-801 in the social preference test
time in the zone of interaction ([1]; fish exposed 20 min to drug, then 20 min to water or MK-801 5 μM, main effect of drug pretreatment, two-way ANOVA): nonspecifically reduced the time in the zone of interaction at the intermediate and highest concentrations
number of crossings ([1]; interaction between drug pretreatment and MK-801 5 μM, Bonferroni post hoc): potentiated the effect of MK-801 at the intermediate concentration

C[C@]12N[C@H](Cc3ccccc31)c1ccccc12 [MK-801, dizocilpine]
absolute turn angle ([2]; main effect of MK-801 5 μM): decreased
clockwise rotations ([2]; main effect of MK-801 5 μM): decreased
distance traveled ([2]; main effect of MK-801 5 μM): decreased the distance traveled
immobility time ([2]; main effect of MK-801 5 μM): increased the immobility time
number of crossings [1, 7]: increased
time in the social interaction zone [1, 7]: spent less time in the social interaction zone
total distance traveled [1, 7]: increased the total distance traveled
immobility time [1, 8]: increased
number of crossings [1, 8]: increased the number of crossings

CCN1CCCC1CNC(=O)c1cc(S(N)(=O)=O)ccc1OC (stereo not shown) [Sulpiride, sulpiride]
overall effect on the analyzed parameters of the open tank test ([2]; then water or MK-801 5 μM): no significant effects on any of the analyzed parameters
overall effect on all parameters of the social preference test [1]: devoid of effects on all parameters

COC(=O)C1=COC(C)C2C[n+]3ccc4c([nH]c5ccccc54)c3CC12.O=S(=O)([O-])c1ccccc1 (stereo not shown) [alstonine benzensulfonate, Alstonine benzenesulfonate]
immobility time ([2]; drug pretreatment 20 min, then water or MK-801 5 μM, interaction with MK-801, post hoc): the intermediate and highest concentrations prevented the increase in immobility time induced by MK-801; also recorded: subgroup of animals that respond to alstonine benzensulfonate regarding immobility time to the level of controls
distance traveled ([2]; drug pretreatment 20 min, then water or MK-801 5 μM, main effect of drug): trend for a main effect on total distance
clockwise rotations ([2]; drug pretreatment 20 min, then water or MK-801 5 μM, main effect or interaction with MK-801): significant interaction; also recorded: preventing (at the highest concentrations) the effects of MK-801 on clockwise rotations
overall effect on the analyzed parameters of the open tank test ([2]; then water or MK-801 5 μM): possess antipsychotic-like properties similar to olanzapine
overall effect on all parameters of the social preference test [1]: devoid of statistically significant effects

COC(=O)C1=COC(C)C2C[n+]3ccc4c([nH]c5ccccc54)c3CC12.O=C([O-])c1ccccc1 (stereo not shown) [alstonine benzoate, Alstonine benzoate]
overall effect on all parameters of the social preference test [1]: devoid of statistically significant effects
immobility time ([1]; interaction between drug pretreatment and MK-801 5 μM): trend for alstonine benzoate to prevent the effects of MK-801 on immobility time in the highest concentration tested

COC(=O)C1=CO[C@@H](C)[C@@H]2Cn3ccc4c5ccccc5nc-4c3C[C@H]12 [alstonine]
effect on [3H]SCH23390 binding [3]: does not affect
antipsychotic properties in mice models [4]: shows antipsychotic properties
DA uptake [5]: increasing DA uptake
effect on [3H]Spiperone binding [6]: does not affect
